Values of other authors as cited in patent US20040096453A1, “Methods and compositions to treat glycosaminoglycan-associated molecular interactions” (Neurochem (International) Limited, priority 1998, published 2004).

System: two streptococcal proteins (9,15 Kda)
Settings: basement membranes of cardiac muscle and renal tissues; Bergey & Stenson

heparin
inhibition of binding of streptococcal proteins to basement membranes: completely inhibited
